{
  "source": "patent US9804176B2",
  "about": "“Assays for vitamin D epimers” (Siemens Healthcare Diagnostics Inc., priority 2014, dated 2017)",
  "tested_on": "biotinylated monoclonal anti-25OH vitamin D antibody",
  "assay": "25OH Vitamin D LOCI immunoassay, 3-epimer cross-reactivity, no anti-3-epimer antibody added",
  "format": "binding, sheep",
  "conditions": "No anti-3-epimer VD Ab added; for Avg. Cross-reactivity: average of ten patient sera spiked with 100 ng/mL 3-epimer D3",
  "procedure": "The 25OH Vitamin D (25(OH)D) immunoassay format employed was a homogeneous competitive chemiluminescent immunoassay based on LOCI® assay technology. The assay was performed on the Siemens Dimension® EXL automated integrated clinical chemistry system (Siemens Healthcare Diagnostics Inc., Deerfield, Ill.). The assay measured the total concentration of 25(OH)D2 and/or 25(OH)D3 in serum and plasma samples. The LOCI® assay reagents included a releasing reagent, two synthetic bead reagents and a biotinylated monoclonal anti-25OH vitamin D antibody reagent. The first bead reagent (designated “Sensibeads”) was coated with streptavidin and contained a photosensitive dye. The second bead reagent (designated “Chemibeads”) was coated with a 25(OH)D3 analog and contained chemiluminescent dye. Sample was incubated with the releasing reagent to release 25(OH)D molecules including 3-epimeric compounds from vitamin D binding proteins. The reaction mixture was then incubated with biotinylated antibody to form a 25(OH)D-biotinylated antibody complex. […] Chemibeads were added to bind excess free biotinylated antibody. Sensibeads were then added to bind to the biotin portion of the biotinylated antibody. Aggregates of Chemibead-analog/antibody-biotin/streptavidin-Sensibeads were formed as a result. […] The resulting chemiluminescent signal was measured at 612 nm and is inversely proportional to the concentration of total 25(OH)D in the sample.\nBiotinvlation of anti-25(OH)D antibody—NHS-PEO4-biotin (Pierce Chemical Company, Rockford Ill.) was coupled with the anti-25(OH)D antibody (a sheep monoclonal antibody from Bioventix, Farnham, Surrey, UK). […] The concentration was measured on UV A280. […]\nThe effect of adding anti-3-epimer-VD antibody 8F10.1 (anti-3-epimer VD Ab) on the 3-epimer cross-reactivity for the assay is shown in Table 1. […] The 3-epimer cross-reactivity was calculated by the difference between 25(OH)D2 or 25(OH)D3 values with and without the spiked 3-epimer compound divided by the amount of added 3-epimer compound.",
  "note": "Where “and” joins values, the source holds several entries; their conditions need not be identical. Equal values may be shown once.",
  "data": [
    {"smiles": "C=C1CC[C@@H](O)C/C1=C/C=C1\\CCC[C@]2(C)[C@@H]([C@H](C)CCCC(C)(C)O)CC[C@@H]12", "note": "[3-epimer D3, 3-epi-25-hydroxyvitamin D3]", "values": [
      {"measurement": "Avg. Cross-reactivity", "result": 13.7, "unit": "%"},
      {"measurement": "Avg. Cross-reactivity", "setting": "listed as 3-epimer vitamin D3 compound", "result": 13.7, "unit": "%"},
      {"measurement": "Cross-Reactivity", "setting": "individual patient serum spiked with 100 ng/mL 3-epimer D3", "result": "17.9% (2×) and 11.9% and 12.6% and 16.1% and 10.2% and 9.1% and 10.5% and 15.3% and 15.5%"}
    ]}
  ]
}
